The results in this text go back to article PMC8198190, “The PFKFB3 Inhibitor AZ67 Inhibits Angiogenesis Independently of Glycolysis Inhibition” (International Journal of Molecular Sciences, 2021).

This experiment concerns the target T1, PFKFB3 (6-phosphofructo-2-kinase/fructose-2,6-bisphosphatase-3) (Homo sapiens, UniProt Q16875).
T1 construct: recombinant human PFKFB3 produced in E. coli
Briefly: isothermal titration calorimetry (MicroCal Peaq-ITC, […] °C, triplicate). It is filed as binding. On the technique in general: ITC needs no label: the signal is the heat of the interaction.

pKd: −log10 of the molar value.

T1 sequence (Q16875 whole entry): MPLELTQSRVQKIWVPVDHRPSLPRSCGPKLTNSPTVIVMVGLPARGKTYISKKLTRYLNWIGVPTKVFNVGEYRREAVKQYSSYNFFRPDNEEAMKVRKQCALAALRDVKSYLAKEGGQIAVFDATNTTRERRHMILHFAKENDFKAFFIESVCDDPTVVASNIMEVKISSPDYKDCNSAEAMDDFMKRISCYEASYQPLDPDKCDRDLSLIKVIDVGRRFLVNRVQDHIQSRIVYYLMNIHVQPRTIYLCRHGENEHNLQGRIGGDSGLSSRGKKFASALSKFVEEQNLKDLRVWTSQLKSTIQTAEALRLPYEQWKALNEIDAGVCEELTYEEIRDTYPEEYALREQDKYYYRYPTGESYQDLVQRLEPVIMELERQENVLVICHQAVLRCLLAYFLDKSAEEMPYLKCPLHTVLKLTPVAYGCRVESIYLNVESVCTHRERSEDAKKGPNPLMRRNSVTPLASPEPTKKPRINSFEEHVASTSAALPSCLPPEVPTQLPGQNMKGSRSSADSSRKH

In general, pKd refers to the negative decadic logarithm of the Kd, by convention in mol/L. The compound `Cc1noc(C)c1Cn1cc(C#N)c2cc(Oc3ccc(NC(=O)[C@@H]4CCCN4)cc3)ccc21` [AZ67] showed a pKd of 6.77.
